“Also recorded” adds a separate entry of the source.
What was measured:
[1] = test system: human ovarian clear cell adenocarcinoma cell line (ES2); assay: PD-L1 expression in tumor cells of ES2 tumor mass in nude mice (Experimental Example 9); assay type: in vivo; conditions: ES2 subcutaneous in nude mice; 10 mg/kg orally once daily, 7 days; vs vehicle
Experimental: The efficacy of the PAI-1 inhibitor against human cancer cells (ovarian cancer cells) was studied in vivo. Specifically, 5×10^5 cells of a human ovarian clear cell adenocarcinoma cell line (ES2) were transplanted subcutaneously in nude mice. One week later, engraftment of more than 5 mm of tumor mass in the major axis was confirmed. Subsequently, the PAI-1 inhibitor was orally administered once daily at 10 mg/kg for a total of 7 days. On the next day of the final administration, the tumor mass was collected from the mice, chopped with scissors, suspended in a 0.025% collagenase solution (FUJIFILM Wako Pure Chemical Corporation), and treated at 37° C. for 2 hours to break cell-cell bonds. The cells obtained by enzymatic treatment were stained with an anti-PD-L1 antibody (clone name: 10F.G92) labelled with Allophycocyanin (APC), and the PD-L1 expression level in the tumor cells was determined with a flow cytometer. As a comparative control experiment, cells were collected also from the tumor mass in the same manner in terms of a mouse group to which only physiological saline (vehicle) was administered instead of the PAI-1 inhibitor, and the PD-L1 expression level in the tumor cells was determined with a flow cytometer.

[2] = test system: mouse leukemia cell line (32Dp210); assay: PD-L1 mRNA expression by real-time PCR in 32Dp210 cells (Experimental Example 4); assay type: cell-based; conditions: inhibitor 50 μM with rPAI-1 40 nM or 100 nM, overnight, listed as PAI-1 inhibitor
Experimental: The culture supernatant of the cells overexpressing PAI-1 (32D PAI-1 OE) prepared in Experimental Example 1 (PAI-1 OE sup) was added to a mouse leukemia cell line (32Dp210). In addition, those obtained by adding the PAI-1 inhibitor to a concentration of 50 μM, together with rPAI-1 (40 nM or 100 nM), were also prepared. Then, culturing was performed on a 96-well plate at 37° C., 5% CO2, overnight. The cells were collected, RNA was extracted using ISOGEN2 (Nippon Gene Co., Ltd.), and 100 ng of RNA was subjected to a reverse transcription reaction using a PrimeScript RT-PCR kit (Takara Bio Inc.) to obtain cDNA. The PD-L1 gene expression level was monitored by real-time PCR using TaqMan Fast Advanced Master Mix (Thermo Fisher Scientific). PD-L1 (Mm00452054_m1, Thermo Fisher Scientific) was used as the primer. To standardize the RNA amount, the expression level of 18S rRNA (Hs99999901_s1, Thermo Fisher Scientific) was also measured simultaneously. The PD-L1 gene expression level was determined using a comparative Ct method, which was shown in the graph as a ratio relative to the control group.

[3] = test system: mouse colorectal cancer cell line (MC38); assay: PD-L1 expression level by flow cytometry in MC38 cells (Experimental Example 3); assay type: cell-based; conditions: inhibitor 50 μM with rPAI-1 40 nM, 2 days, listed as PAI-1 inhibitor
Experimental: Next, the PD-L1 expression level was determined by flow cytometry in the same manner as in Experimental Example 1.
Likewise, a mouse colorectal cancer cell line (MC38) and a mouse malignant melanoma cell line (B16F10) were also tested in the same manner, instead of the mouse leukemia cell line (32Dp210).

[4] = test system: mouse leukemia cell line (32Dp210); assay: Size of subcutaneous 32Dp210 tumor mass in mice (Experimental Example 10); assay type: in vivo, mice (C3H/HEJ); conditions: 32Dp210 subcutaneous, 10 mg/kg orally once daily, 7 days, n=2, listed as PAI-1 inhibitor
Experimental: Specifically, 5×10^5 cells of a mouse leukemia cell line (32Dp210) were transplanted subcutaneously in mice (C3H/HEJ), and one week later, engraftment of more than 5 mm of a tumor mass in the major axis was confirmed. Subsequently, the PAI-1 inhibitor was orally administered once daily at 10 mg/kg for a total of 7 days. On the next day of the final administration, the size of the tumor mass ([…]) was measured. As a comparative control experiment, the size of the tumor mass was measured in the same manner in terms of a mouse group to which only physiological saline (vehicle) was orally administered instead of the PAI-1 inhibitor.

[5] = target: human PAI-1 (Homo sapiens, UniProt P05121); assay: PAI-1 inhibitory activity, t-PA with Spectrozyme t-PA chromogenic substrate (Reference Experimental Example 2); assay type: biochemical; design: purchased Molecular Innovations, Inc. (USA); conditions: system without compound after 120 minutes = 100%
human PAI-1, sequence (P05121 24-402): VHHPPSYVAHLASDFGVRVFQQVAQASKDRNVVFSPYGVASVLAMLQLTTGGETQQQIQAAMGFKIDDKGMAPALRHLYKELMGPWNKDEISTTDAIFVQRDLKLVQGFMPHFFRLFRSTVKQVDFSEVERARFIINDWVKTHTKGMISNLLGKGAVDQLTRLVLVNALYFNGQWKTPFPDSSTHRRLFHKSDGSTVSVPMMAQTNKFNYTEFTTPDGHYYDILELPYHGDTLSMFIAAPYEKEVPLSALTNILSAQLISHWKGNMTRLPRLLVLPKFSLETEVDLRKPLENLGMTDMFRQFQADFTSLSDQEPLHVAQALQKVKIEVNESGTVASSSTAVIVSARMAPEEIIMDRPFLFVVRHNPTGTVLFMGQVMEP
Experimental: Subsequently, human-derived tissue plasminogen activator (t-PA) (manufactured by American Diagnostica, Inc. (USA); the same applies hereinafter) adjusted to 0.05 pmol/μL was added thereto, and the mixture was further incubated at 37° C. for 60 minutes. Then, 0.25 mM of Spectrozyme t-PA synthetic substrate (manufactured by American Diagnostica, Inc. (USA); the same applies hereinafter), which is a chromogenic substrate, was added. […]
Free p-nitroaniline removed from the chromogenic substrate (Spectrozyme t-PA) by t-PA action was measured using a spectrophotometer at an absorbance of 405 nm at 20-minute intervals, for 120 minutes.

[6] = test system: mouse leukemia cell line (32Dp210); assay: PD-L1 expression level by flow cytometry in 32Dp210 cells (Experimental Examples 2 and 3); assay type: cell-based; conditions: inhibitor 50 μM with rPAI-1 40 nM, 2 days, listed as PAI-1 inhibitor
Source text: In order to analyze the characteristics of cancer cells highly expressing PAI-1, a rouse leukemia cell line (obtained by transfecting 32D cells, i.e., a myelomonocytic progenitor cell line, with BCR-ABL; referred to below as “32Dp210”) was transfected with PAI-1 to produce cells overexpressing PAI-1 (32d PAI-1 OE). Next, in order to analyze the expression level of PD-L1, which is an ICM, in the cells, the cells were stained with an anti-PD-L1 antibody (clone name: 10F.G92) labeled with Allophycocyanin (APC) as a fluorescent dye, and subjected to flow cytometry. As a comparative control experiment, a 32Dp210 cell line without transfection of PAI-1 (wild-type cells: 32D WT) was analyzed in the same manner for the PD-L1 expression level.
Specifically, artificially produced recombinant PAI-1 (referred to below as “rPAI-1”; 40 nM) or a culture supernatant of the cells overexpressing PAI-1 (32d PAI-1 OE) prepared in Experimental Example 1 (PAI-1 OE sup; containing a high concentration of PAI-1) was added to 5×10^4 cells of a mouse leukemia cell line (32Dp210), and the cells were cultured on a 96-well plate at 37° C., 5% CO2, for 2 days. Next, the PD-L1 expression level was determined by flow cytometry in the same manner as in Experimental Example 1. As a comparative control experiment, the PD-L1 expression level in untreated mouse leukemia cells (control) was measured in the same manner. […]

In the case of O=C(Nc1ccc(Cl)cc1C(=O)[O-])c1cccc(-c2cccc3cccnc23)c1.[Na+] [Example 68, 5-chloro-2-(((3-(quinolin-8-yl)phenyl)carbonyl)amino)sodium benzoate], the “PD-L1 expression level in the tumor cells” value [1] is reported as “reduced”, the “increase in PD-L1 mRNA expression by rPAI-1” value [2] is reported as “inhibited the induction of the expression; also recorded: suppressed” and the “PD-L1 expression induction by rPAI-1” value [3] is reported as “completely inhibited the induction; also recorded: the same results as those of the leukemia cells”. For the same compound, the “size of the tumor mass” value [4] was “tumor mass disappearance; also recorded: loss of tumor mass”, the PAI-1 activity % ([5]; compound 10 μm (head)) was 2.1% and the PAI-1 activity % ([5]; compound 25 μm (head)) was 2.4%. For the same compound, the “PD-L1 expression induction by rPAI-1” value [6] was “completely inhibited the induction; also recorded: completely suppressed”.

Source: patent US20220340665A1, “INHIBITOR AGAINST EXPRESSION OF IMMUNE CHECKPOINT MOLECULE” (RENASCIENCE INC., priority 2019, published 2022)
